The subject of one assay is HMEC-1. Put plainly: 3D co-culture of HMEC-1 with leiomyosarcoma HTB-88 core biopsy xenograft, panel of angiogenesis inhibitors. In kind it is cell-based, human. The note with it: 100 μg/ml, five-day incubation, versus Thalidomide, Sunitinib, Fumagillin. The method, then: Peripheral ringlet xenograft tissue/HMEC-1 co-cultures were incubated with Avastin®, Thalidomide, Sunitinib or Fumagilin.
3D co-cultures were prepared as follows: 50 μl 1% SEAKEM™ LE agarose were added to individual wells of a 96-well plate and allowed to solidify at room temperature for 20 minutes. 30 μl GELTREX® gel matrix (Invitrogen) were combined with PAE, LEC or HMEC-1 cells at a cell density of 560,000 cells/ml and added to each well of the plate (atop the solidified agarose). Plates were maintained on wet ice (4° C.) to prevent solidification of the gel matrix/cell mixture (the second layer). A single tumor cell spheroid colony or single ringlet of xenograft core biopsy was added to the center of the well and the matrix gel was solidified at 37° C. On top of the tumor/endothelial cell gel layer, 80 μl EBM-2+1% FBS were added to a final concentration of EMB-2+0.5% FBS in relation to the total volume of the culture. Cultures were incubated at 37° C. for 5-20 days and endothelial vessel network formation was observed by confocal laser scanning fluorescence microscopy. […]
Identifying the most efficacious therapy for a particular patient is a crucial goal for successful cancer treatment. […] Several FDA approved anti-angiogenic compounds were assessed in this capacity, including Avastin®, Thalidomide, and Sunitinib as well as the non-FDA approved drug Fumagillin.
A general note: A xenograft is tissue or cells of one species grown in another, often human tumour cells in immunodeficient mice.

Another assay has as its system PAE cells. Description: 3D co-culture of fluorescent PAE cells with leiomyosarcoma HTB-88 xenograft biopsy tissue. Type of assay: cell-based, porcine. The note with it: 100 μg/ml, six days, FIG. 30. The protocol: Xenografts were prepared as in Example 7. Tumor xenografts were dissected when they reached about 1 cm in diameter and put into the sterile 15 ml or 50 ml tubes (Corning) with RPMI1640 medium supplemented with 10% FBS, 1% Glucose (Sigma), and 4× Antibiotic-Antimycotic (Invitrogen). The tumor xenografts were placed on wet ice and shipped to the lab within 2-3 hours. The Xenografts were rinsed 3 times in 70% ethanol and then 3 times in PBS. In the hood, the core biopsy was performed by biopsy punch (Miltex, Inc.) and was washed out into a 100 cm cell culture dish (Corning) by using a pipette to blow the top opening of the biopsy applicator. Using a disposable scalpel (Feather Safety Razor, Co. Japan), the core biopsy was dissected in three stages. 1 mm of both ends of the core biopsy was carefully cut off; they were transferred into a new 100 cm cell culture dish labeled P (peripheral section). Next, 1 mm of both ends of the remaining core biopsy were removed and discarded. […]
3D co-cultures were prepared as follows: 50 μl 1% SEAKEM™ LE agarose were added to individual wells of a 96-well plate and allowed to solidify at room temperature for 20 minutes. […] Cultures were incubated at 37° C. for 5-20 days and endothelial vessel network formation was observed by confocal laser scanning fluorescence microscopy. […]

For the next assay, the system named is PAE-GFP cells. Put plainly: Tubule formation assay on gelled BME, quantified with AngioApplication. Type of assay: cell-based, porcine. The note with it: for EC50: Sus scrofa. The method, then:
This example describes exemplary procedures for measuring the ability of the cell lines disclosed herein for tubule formation potential. 50 μl of low growth factor BME (Basement Membrane Extract, Trevigen, Inc. Gaithersburg, Md.) were laid down in each well and the plate was incubated for 1 hour at 37° C. The extract gels at 37° C. to form a reconstituted basement membrane and stimulates tubule formation by endothelial cells. The major components of the Basement Membrane Extract (BME) include laminin I, collagen IV, entactin, and heparin sulfate proteoglycan. 15,000 PAE-GFP cells were then added on top of the gelled BME and images were acquired with a fluorescent microscope after 3.5-24 hours. Cells were imaged on the BD Pathway™ Bioimager. […] Tubule formation assays were quantified using the Java based software AngioApplication™. AngioApplication™ has been specifically designed for the quantification of tubule formation assays. Several morphological parameters were assessed in images including the total area of the tubules, the total number of tubules, number of nodes, number of branch points, the number of tubes per node, or node.
As shown in FIG. 7A increasing concentrations of suramin causes disruption of tubule formation. AngioApplication™ was used to automatically assess tube length at several concentrations of suramin. Traditionally quantification of tube formation was based in the measurement of complete (long) tubes in the image. AngioApplication™ determined that as the concentration of suramin was increased the number of long tubules was diminished. […] In addition, because AngioApplication™ calculates the length for all tubes in the image (including incomplete tubes) a more refined analysis was performed using the measurement of short (or incomplete) tubules. […] This is in agreement with the fact that Suramin interferes with the mechanism of tube formation.

Like-named read-outs stand apart in the source and are kept apart here.

Here are results for two compounds from patent US8679836B2, “Methods of monitoring angiogenesis and metastasis in three dimensional co-cultures” (The United States of America, as represented by the …, priority 2007, dated 2014).

One may read the EC50 as the concentration giving half of the maximal effect.

Regarding “Avastin®: monoclonal antibody directed against an isoform of VEGF, FDA-approved angiogenesis inhibitor”, in the assay with HMEC-1, the “inhibition of proliferation, compared with the other inhibitors” value is “greatest inhibition” and the “inhibition of tubule formation, compared with the other inhibitors” value is reported as “greatest inhibition”. Further, in the assay with PAE cells, the “effect on PAE proliferation” value was “inhibited” and the “effect on tubule formation” value was “inhibited”.
Turning to `Cc1ccc(C(=O)Nc2ccc(S(=O)(=O)O)c3cc(S(=O)(=O)O)cc(S(=O)(=O)O)c23)cc1NC(=O)c1cccc(NC(=O)Nc2cccc(C(=O)Nc3cc(C(=O)Nc4ccc(S(=O)(=O)O)c5cc(S(=O)(=O)O)cc(S(=O)(=O)O)c45)ccc3C)c2)c1` [suramin], the “effect on tubule formation” value in the assay on PAE-GFP cells (PAE green cells, 0 to 26 μM) is recorded as “inhibited tubule formation”. The EC50 in the assay with PAE-GFP cells (read-out: EC50, number of long tubules) was roughly 26 µM; with PAE-GFP cells (read-out: EC50, number of short (incomplete) tubules), roughly 26 µM; in the assay with PAE-GFP cells (read-out: EC50 calculated, tubule formation), roughly 26 µM.
